{"source": "patent US20030162759A1", "about": "“Aldosterone blocker therapy to prevent or treat inflammation-related disorders” (priority 2000, published 2003)", "key": {"[1]": {"tested_on": "aldosterone + salt treated rats", "assay": "Assay C further aldosterone infusion study: body weight, ventricle weights, tibia length (myocardial hypertrophy)", "type": "in vivo, rat", "details": "for Ventricular weights and ventricular weight to tibia length ratios (hypertrophy): 7, 14, 30 days", "description": "Assay C: Further in vivo Aldosterone Infusion Study The procedure of Assay B was expanded upon in a further study. […] Myocardial tissue from animals in each treatment group was examined after 7, 14, or 30 days of treatment. […] Lesions were preceded by the expression and progressive upregulation of proinflammatory molecules. […] Male Sprague-Dawley rats, weighing 230 to 250 g, (Harlan Sprague-Dawley Industries, Indianapolis, Ind.) were housed in a room 12-hours light/12-hours dark daily cycle at an ambient temperature of 22±1° C. (n=96). Animals were allowed one week to adjust after arrival and had free access to TEKLAD 22/5 rodent diet (Harlan TEKLAD, Madison, Wis.) and tap water until the initiation of the experiment. Prior to surgery the animals were individually weighed and placed in one of the following groups: […] Potassium chloride supplementation was added to the saline solution in order to prevent the potential hypokalemia associated with aldosterone excess. […] Louis, Mo.) was inserted subcutaneously at the nape of the neck. Aldosterone was administered at a dose of […]. […] Animals were sacrificed from each group (n=8-13) after 7, 14, or 30 days of treatment. Animals to be sacrificed after 7 or 14 days of treatment were uninephrectomized and implanted with an Alzet minipump. Animals treated for 30 days were uninephrectomized, fitted for Alzet minipumps, and implanted with radio telemetry units (model#TA11PA-C40, Data Sciences Inc., St. Paul, Minn.) according to the following procedure. […] The surgery site was clipped, scrubbed with nolvasan, and sprayed with betadine. A rostral-caudal incision was made through the skin from the base of the rib cage to the pubic region using a #11 scalpel blade. A second incision was made through the muscles of the abdominal wall to expose the peritoneal cavity. […] Organs were carefully displaced with tissue retractors in order to expose the abdominal aorta. A 1.5 cm segment just rostral to the bifurcation of the abdominal aorta into the iliac arteries was cleared of excessive connective tissue and 4-0 silk was used to make an anchor adjacent to the aorta. A microvascular clip was then placed at both ends of the cleaned region to stop excessive blood flow. Using a bent, 21 gauge needle, the abdominal aorta was penetrated. The cannula of the radio telemetry unit was inserted and stabilized in the aorta using the 4-0 silk anchor. Organs were repositioned and the telemetry unit was placed over the organs. Using a non-interrupted suture pattern with 4-0 silk, the abdominal wall was closed, and the skin was subsequently closed using a 4-0 silk in an interrupted suture pattern. […] Post-operative care included monitoring the animals on a heating pad during recovery from anesthesia until sternal recumbency was reestablished. At the cessation of each experimental time point, the animals were anesthetized with pentobarbital (65 mg/kg i.p., Sigma Chemical, St. Louis Mo.) and weighed with a Mettler PM6000 balance (Mettler-Toledo, Inc., Hightstown, N.J.). The abdominal cavity was opened to expose the abdominal aorta. A 16-gauge needle was inserted into the abdominal aorta and the animal was exsanguinated into a 12 cc syringe. The blood sample was transferred immediately into glass serum collection tubes (Terumo Medical Corp., Elkton, Md.) for drug level analysis. The samples were placed on wet ice until sample collection was complete and centrifuged for 15 min at 3000 rev/min at 4° C. Following exsanguination, hearts and kidneys were isolated, removed, rinsed in cold phosphate-buffered saline, and blotted dry."}, "osteopontin": {"tested_on": "osteopontin", "assay": "Assay B aldosterone infusion model: osteopontin immunohistochemistry of hearts", "type": "in vivo, rat", "details": "aldosterone infused rats; eplerenone 100 mpk p.o.", "procedure": "Assay B: In vivo Aldosterone Infusion Model Male Sprague Dawley rats (n=39; BW=250 g) […] Uni-nephrectomy performed during implantation of mini-pumps 2. Aldosterone ([…], sc via aizet minipump) 2. […] 1. […] Sacrifice after 4 weeks. Determination of osteopontin and COX-2 was performed by quantitative RT-PCR (Taqman). Osteopontin was also identified in the heart by immunohistochemistry."}, "[2]": {"details": "group Mean row of Table 9.11, 7 days of treatment"}, "[3]": {"details": "individual rats, 7 days of treatment, eplerenone 100 mg/kg/day, listed as Aldosterone + salt"}, "[4]": {"details": "mean ± SEM after 30 days of treatment, eplerenone 100 mg/kg/day"}}, "note": "Several values for one entry are separate records, joined by “and”; a condition that tells them apart may be missing. Equal entries are not always repeated. Entries after “also recorded” stand apart in the source; their conditions may differ."}
{"smiles": "C[C@]12CCC(=O)C=C1CC[C@@H]1[C@@H]2[C@@H](O)C[C@]2(C=O)[C@@H](C(=O)CO)CC[C@@H]12", "note": "[aldosterone]", "values": [{"measurement": "Ventricular weights and ventricular weight to tibia length ratios (hypertrophy)", "setting": "[1]; eplerenone 100 mg/kg/day", "result": "Significant left and right ventricular hypertrophy"}, {"measurement": "Final Body Weight", "setting": "[1]; [2]", "result": 277, "unit": "g"}, {"measurement": "Right Ventricle Weight/Tibia Length", "setting": "[1]; [2]", "result": 48, "unit": "mg/cm"}, {"measurement": "Left Ventricle Weight", "setting": "[1]; [3]", "result": 620, "unit": "mg"}, {"measurement": "Left Ventricle Weight/Tibia Length", "setting": "[1]; [3]", "result": 200, "unit": "mg/cm"}, {"measurement": "Right Ventricle Weight/Tibia Length", "setting": "[1]; [3]", "result": "48 mg/cm and 49 mg/cm and 57 mg/cm and 47 mg/cm (2×) and 44 mg/cm and 41 mg/cm and 51 mg/cm and 55 mg/cm"}, {"measurement": "Left Ventricle Weight", "setting": "[1]; [4]", "result": "910 ± 29", "unit": "mg"}, {"measurement": "Right Ventricle Weight", "setting": "[1]; [4]", "result": "192 ± 8", "unit": "mg"}, {"measurement": "Right Ventricle Weight/Tibia Length", "setting": "[1]; [4]", "result": "49 ± 2", "unit": "mg/cm"}, {"measurement": "Tibia Length", "setting": "[1]; [4]", "result": "3.9 ± 0.02", "unit": "cm"}, {"measurement": "Osteopontin expression in the heart (immunostaining)", "setting": "osteopontin", "result": "osteopontin was clearly identified in the media of coronary arteries"}]}
{"smiles": "COC(=O)[C@@H]1CC2=CC(=O)CC[C@]2(C)[C@@]23O[C@@H]2C[C@@]2(C)[C@@H](CC[C@@]24CCC(=O)O4)[C@H]13", "note": "[eplerenone, Pregn-4-ene-7,21-dicarboxylic acid, 9,11-epoxy-17-hydroxy-3-oxo-, γ-lactone, methyl ester, (7α, 11α, 17β) -]", "values": [{"measurement": "Ventricular weights and ventricular weight to tibia length ratios (hypertrophy)", "setting": "[1]; eplerenone 100 mg/kg/day", "result": "did not impact absolute ventricular weights or ventricular weight to tibia length ratios"}, {"measurement": "Right Ventricle Weight/Tibia Length", "setting": "[1]; Table 9.13, 30-day protocol, eplerenone 100 mg/kg/day, individual rats, listed as Eplerenone + aldosterone + salt", "result": 50, "unit": "mg/cm"}, {"measurement": "Decrease in body weight induced by aldosterone+salt", "setting": "[1]; day 30, eplerenone 100 mg/kg/day", "result": "significantly attenuated"}, {"measurement": "Final Body Weight", "setting": "[1]; individual rats, 7 days of treatment, eplerenone 100 mg/kg/day, listed as Eplerenone + aldosterone + salt", "result": "306 g and 295 g (2×) and 277 g and 276 g"}, {"measurement": "Left Ventricle Weight/Tibia Length", "setting": "[1]; [4]", "result": "240 ± 9", "unit": "mg/cm"}, {"measurement": "Right Ventricle Weight/Tibia Length", "setting": "[1]; [4]", "result": "51 ± 2", "unit": "mg/cm"}, {"measurement": "Osteopontin expression in the heart (immunostaining)", "setting": "osteopontin", "result": "prevention by eplerenone of induction of osteopontin expression; also recorded: prevented the expression of osteopontin"}]}
